This series is described as follows: gradient 5% acetonitrile 3 min, to 50% in 2 min, to 85% in 15 min, held 3 min, 100 µL/min. As to conditions: column: Zorbax Extend-C18 2.1 x 50 mm; eluents: water / acetonitrile, 0.1% formic acid. A digest of the protocol: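 Using water and acetonitrile that each contained 0.1% formic acid, mixtures of ~100 pure standards were separated at 100 μL/min on a Zorbax Extend-C18 column (2.1 × 50 mm, 1.8 μm). The HPLC fed a quadrupole time-of-flight mass spectrometer working in positive and negative ionization mode, with dead and dwell volumes of 40 μL and 900 μL. Data were acquired over 3 months. Retention time was read from computationally picked adduct peaks after manual inspection of each.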
`N#Cc1cccc(C(=O)Nc2cnn(-c3ncc(N4CCCC4)cn3)c2)c1`: the RP-LC retention time stood at 777 s.
Turning to `CCOc1ccc2nc(NC(=O)Cn3nc(C(=O)N4CCCC4)c4ccccc43)sc2c1`, the RP-LC retention time turned out to be 894 s.
In the case of `Cc1cccc(Sc2nccnc2N2CCC(C(=O)NCCCc3ccccc3)CC2)c1`, the RP-LC retention time is 1140 s.
The molecule `CCCCN1C(=O)C(NC(=O)c2ccccc2OC)(C(F)(F)F)C2=C1CC(C)(C)CC2=O` (stereo not drawn) had an RP-LC retention time of 1080 s.
Regarding `O=C(O)c1cc(NS(=O)(=O)c2cccc(F)c2)ccc1N1CCCC(CN2CCCC2)C1` (stereo not drawn), the RP-LC retention time was determined as 594 s.
Regarding `Cc1cc(C(=O)Nc2ccc3nc(N4CCN(C)CC4)cc(C)c3c2)ccc1[N+](=O)[O-]`, the RP-LC retention time was 595 s.
In the case of `Cc1noc2ncnc(N3CCCC(C(=O)N4CCN(c5ccc(F)cc5)CC4)C3)c12` (stereo not drawn), the RP-LC retention time stood at 846 s.
For the molecule `CCOC(=O)c1cnc2c(C(F)(F)F)cccc2c1NCCN(C)C`, the RP-LC retention time came to 614 s.
Molecule `Cc1ccc(S(=O)(=O)NCCc2nc(-c3cccc(-c4ccnn4C)c3)no2)cc1` returned an RP-LC retention time of 917 s.
`O=C(CN1C(=O)CCC1=O)Nc1ccc2c(c1)CN(C(=O)c1cccs1)CC2` had an RP-LC retention time of 630 s.
As to `CC(C)n1c(=O)n(CC(=O)N2CCCc3ccccc32)c2cc(S(=O)(=O)N3CCCC3)ccc21`, the RP-LC retention time stood at 947 s.
In turn, `Cc1cc(C)cc(C(=O)Nc2ccc3c(c2)Sc2ncccc2C(=O)N3C)c1` returned an RP-LC retention time of 888 s.
`CCc1ccc(NC(=O)Nc2ccc(NC(=O)N3CCC(C(=O)NC)CC3)cc2)cc1` came in with an RP-LC retention time of 704 s.
The result for `Cc1ccccc1CN1CC(=O)N(c2ccccc2)[C@@H]2CS(=O)(=O)C[C@@H]21` reads 800 s; that for `CC(=O)/C=C1\C(=O)N(C)c2ccccc21`, 858 s.
`CSc1nc2ccc(NS(=O)(=O)c3ccc(Br)s3)cc2s1` displayed an RP-LC retention time of 994 s.
For the molecule `Cc1cccc(CN2CCCn3nc(C(=O)NCCCOC(C)C)cc3C2=O)c1`, the RP-LC retention time worked out at 842 s.
The molecule `Cc1sc(-c2nnc(C3CC3)o2)cc1NC(=O)Cc1c[nH]c2ccccc12` returned an RP-LC retention time of 877 s.
In the case of `Cc1cc2n(n1)CCCN2C(=O)CCC(=O)N1CCC(Cc2ccccc2)CC1`, the RP-LC retention time worked out at 818 s.
For `CC(C)(C)C1=NN=C2c3ccccc3C(=O)C21` (stereo not drawn), the RP-LC retention time was 852 s.
`Cn1c(N2CCCC(C(=O)NCC3CCN(CCc4cccs4)CC3)C2)cc(=O)n(C)c1=O` (stereo not drawn) had an RP-LC retention time of 589 s.
Molecule `O=C(NCCc1c[nH]c2ccccc12)c1cc(-c2ccc(F)cc2)c[nH]1` gave an RP-LC retention time of 859 s.
`COc1ccccc1CNC(=O)C1=C2CCCN2c2ccc(F)cc2S1(=O)=O` registered an RP-LC retention time of 882 s.
`COc1cc(NC(=O)C(=O)c2cccn2C)cc(OC)c1` gave an RP-LC retention time of 976 s.
Then `CCC(C(=O)NC(C)C(=O)N1CCCCC1)n1c2ccccc2c2cnn(C)c(=O)c21` (stereo not drawn), with 670 s.
Regarding `O=C(CCc1csc(NC(=O)Nc2ccccc2)n1)Nc1nc2ccccc2s1`, the RP-LC retention time was determined as 864 s.
Molecule `COc1cccc(-c2noc(CN3C(=O)COc4ccccc43)n2)c1` yielded an RP-LC retention time of 981 s.
The molecule `COCCN1CCC(N2CCN(S(=O)(=O)c3ccc(F)cc3F)CC2)C1=O` (stereo not drawn) came in with an RP-LC retention time of 570 s.
For `Cc1ccc2[nH]cc(CCNC(=O)CC3CCN(C(=O)NC4CCCCC4)CC3)c2c1`, the RP-LC retention time was determined as 808 s.
`CCC(C)NC(=O)C1CCN(S(=O)(=O)c2cc(-c3noc(C(C)C)n3)sc2C)CC1` (stereo not drawn): the RP-LC retention time came to 1020 s.
In turn, `Fc1ccc(Cc2noc(-c3nc(-c4ccncc4)no3)n2)cc1` came in with an RP-LC retention time of 943 s.
`Cc1cccc(-c2noc(C3CCCN3S(=O)(=O)c3cc(C)ccc3C)n2)c1` (stereo not drawn): the RP-LC retention time turned out to be 1260 s.
`COC(=O)c1ccc(CSc2ccc(NC(=O)c3cccs3)nn2)o1` showed an RP-LC retention time of 820 s.
In the case of `Cc1cccc(Cl)c1NC(=O)/C=C/c1ccccc1`, the RP-LC retention time came out at 850 s.
`COc1cccc(C2NC(=O)NC(C)=C2C(=O)OC2CCCCCC2)c1OC` (stereo not drawn) showed an RP-LC retention time of 971 s.
`O=C(CN1C(=O)C2CCCCN2c2ccc(C(=O)N3CCCC3)cc21)NCc1ccccn1` (stereo not drawn) had an RP-LC retention time of 626 s.
Molecule `COCC(=O)N1CCOc2ccc(N(C)C)cc2C1` displayed an RP-LC retention time of 550 s.
As for `CC(=O)c1cccc(NC(=O)C2CC(=O)N(c3ccc4c(c3)CCN4C(C)=O)C2)c1` (stereo not drawn), the RP-LC retention time turned out to be 668 s.
In the case of `Cc1c(Cl)cccc1NC(=O)C(C)n1cnc2nc3c(cc2c1=O)CCCC3` (stereo not drawn), the RP-LC retention time is 805 s.
In turn, `COc1cccc(S(=O)(=O)N2CCCN(C3CCN(Cc4ccccc4)C3=O)CC2)c1` (stereo not drawn) gave an RP-LC retention time of 671 s.
Molecule `COc1ccc(NC(=O)c2nc(N3CCSCC3)c3cnn(C)c3n2)cc1` gave an RP-LC retention time of 814 s.
Turning to `Cc1nn(C)c(C)c1CCN(C)C(=O)C1CCCCC(=O)N1C` (stereo not drawn), the RP-LC retention time came out at 582 s.
Take `CCCn1cc(CCNS(=O)(=O)c2ccc(C)c(Cl)c2)c2cccnc21`: the RP-LC retention time is 939 s.
Consider `O=C(NCCCN1CCCC1)c1ccc2ccnc(N3CCN(c4ccc(Cl)cc4)CC3)c2c1`, for which the RP-LC retention time was 639 s.
Then `CCc1ccc(NC(=O)N2CCC(C(=O)NCc3csc(C)n3)CC2)cc1`, with 660 s; and `CC(C)n1cc(S(=O)(=O)NCc2ccccc2C(F)(F)F)c2cccnc21`, with 977 s; and `CCOc1ccc(N2CCn3c2nc2c3c(=O)n(CC(=O)O)c(=O)n2C)cc1`, with 689 s.
The result for `CN(C)c1ccc2c(c1)CN(C(=O)c1cc(C3CC3)[nH]n1)CCO2` reads 588 s.
`CC1CCN(C2=NCCN2C(=O)c2ccc(F)cc2)CC1` came in with an RP-LC retention time of 661 s.
The result for `Cn1cc(C(=O)Nc2ccc3c(c2)OCO3)c2cccnc21` reads 730 s.
With `COc1ccc(C(=O)N2CCN(c3ccc(=O)n(-c4ccc(C(C)C)cc4)n3)CC2)cc1OC`, the RP-LC retention time was determined as 867 s.
In turn, `CCN1CCN(C(=O)C2CCN(c3nc4ccc(-c5cccs5)nc4s3)CC2)CC1` had an RP-LC retention time of 586 s.
Consider `Cc1noc(C)c1-c1ccc(S(=O)(=O)Nc2cccc(Br)c2)cc1`, for which the RP-LC retention time was found to be 1000 s.
`O=C(NCC(c1cccs1)S(=O)(=O)c1ccc(F)cc1)c1nc2ccccc2s1` (stereo not drawn) registered an RP-LC retention time of 948 s.
In turn, `O=S(=O)(NC1CCCCC1)c1ccc(-c2cc(C(F)(F)F)on2)o1` returned an RP-LC retention time of 1120 s.
`Cn1c(=O)sc2cc(S(=O)(=O)N3CCC(C(=O)NCCc4nc5ccccc5[nH]4)CC3)ccc21` registered an RP-LC retention time of 624 s.
As to `COc1ccc(CCNC(=O)Cn2ccc3ccc(-c4nnc(C)o4)cc32)cc1OC`, the RP-LC retention time worked out at 715 s.
The result for `COc1ccc(NS(=O)(=O)c2c(C)nn(-c3ccc(-c4ccccc4)nn3)c2C)cc1OC` reads 895 s; that for `Cc1ccc(CSc2nc(CC(=O)N3CCC(C(N)=O)CC3)cs2)cc1`, 680 s.
In turn, `CCN(CC)C(=O)c1cc2c(s1)CCC(C(=O)Nc1ccc(N3CCOCC3)cc1)C2` (stereo not drawn) registered an RP-LC retention time of 767 s.
Turning to `CCC(=O)Oc1ccc(NC(=O)c2ccc(S(=O)(=O)N3CCCC3)cc2)cc1`, the RP-LC retention time was determined as 884 s.
`Cc1nc2cc(-c3noc(-c4ncoc4-c4ccccc4)n3)ccc2o1` had an RP-LC retention time of 1020 s.
The result for `COc1cc(OC)cc(C(=O)N2CCC3(CC2)NC(=O)c2cc(C)ccc2N3C)c1` reads 795 s; that for `COc1ccc2c(c1)c(N1CCCC1=O)c(C(=O)Nc1ccc(F)cc1)n2C`, 952 s.
The result for `Cc1cc2c(c(=O)n(-c3ccc(F)cc3)c(=O)n2CC(=O)Nc2ccccc2F)n1C` reads 837 s; that for `Cc1ccccc1CNC(=O)C1=C2CCCN2c2ccc(F)cc2S1(=O)=O`, 918 s; that for `COc1ccc(CNCCSc2nnnn2C)c(OC)c1`, 598 s.
`CCOC(=O)C(NC(=O)Nc1c(-c2cccc(C)c2)nc2ccccn12)C(C)C` (stereo not drawn) showed an RP-LC retention time of 690 s.
Regarding `COCCc1noc(C2Cc3ccccc3N2C(=O)NCc2ccc(OC)cc2)n1` (stereo not drawn), the RP-LC retention time stood at 904 s.
The result for `CCCNC(=O)C1CCN(c2cc(SCC(=O)Nc3ccc(C(=O)OCC)cc3)ncn2)CC1` reads 781 s; that for `CCc1ccc(S(=O)(=O)N2CCC(C)(C(=O)NCc3ccccc3C)CC2)cc1`, 1020 s.
In turn, `CCOC(=O)C1=C(CN(C)Cc2ccccc2)NC(=O)NC1c1cccc(OC)c1OC` (stereo not drawn) gave an RP-LC retention time of 659 s.
The result for `Cn1c(C2CCN(C(=O)NCCc3ccccc3)CC2)cc(=O)n2nccc12` reads 619 s; that for `CCc1nnc(-c2ccc(NS(=O)(=O)c3cccc(OC)c3)cc2)o1`, 801 s.
Molecule `CCC(C)NC(=O)N1CCN(Cc2nc3cc(C(=O)N4CCCC4)ccc3n2C)CC1` (stereo not drawn) gave an RP-LC retention time of 581 s.
For `COC(=O)c1ccccc1NC(=O)Cn1c(=O)n(-c2ccccc2)c(=O)c2c1cc(C)n2C`, the RP-LC retention time came out at 911 s.
The result for `Cc1ccc(S(=O)(=O)N2CCC(C3CCNC3)CC2)cc1F` (stereo not drawn) reads 651 s; that for `COc1ccc(C(=O)Nc2nc(-c3ccc4c(c3)NC(=O)C(C)O4)cs2)cc1OC` (stereo not drawn), 864 s.

(Values after the METLIN SMRT retention time set (Domingo-Almenara et al. 2019).)
